Data reported in US8962660B2 (Bristol-Myers Squibb Company, priority 2013, dated 2015).

Molecular target: T1, human GPR120 (Homo sapiens, UniProt Q5NUL3)
T1 construct: expressed in transfected cells; host or cells: CHOA12 cells
T1 sequence (Q5NUL3 1-361): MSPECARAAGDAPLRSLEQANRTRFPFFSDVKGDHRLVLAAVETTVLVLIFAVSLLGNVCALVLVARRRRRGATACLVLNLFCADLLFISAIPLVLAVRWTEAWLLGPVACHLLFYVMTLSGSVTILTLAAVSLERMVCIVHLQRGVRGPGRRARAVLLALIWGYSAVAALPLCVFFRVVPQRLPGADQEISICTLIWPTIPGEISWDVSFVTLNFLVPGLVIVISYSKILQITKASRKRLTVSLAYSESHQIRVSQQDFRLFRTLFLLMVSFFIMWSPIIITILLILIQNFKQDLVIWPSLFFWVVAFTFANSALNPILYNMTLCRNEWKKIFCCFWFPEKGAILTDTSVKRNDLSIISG
Assay: GPR120 pERK AlphaScreen SureFire assay (human)
Type: cell-based
Settings: CHO cells stably transfected with short form of human GPR120
From the text: GPR120 activity was monitored by measuring phosphorylation of ERK (pERK), since G protein receptors are known to activate the ERK signaling cascade either directly and/or through recruitment of arrestin that serves as a scaffold for downstream signaling events.
GPR120 pERK AlphaScreen SureFire Assay
The human and mouse GPR120-mediated intracellular phosphorylated ERK assays were established using CHOA12 cells stably transfected with the short form of human or mouse GPR120 receptor. Cells were cultured in growth medium consisting of F-12 media (Invitrogen Cat. #11765) with 5% Charcoal/Dextran FBS (Invitrogen Cat. #12676-029), 500 μg/mL GENETICIN® (Life Technologies Cat. #10131-027) and 250 μg/mL Zeocin (Invitrogen Cat. #R250-01). Cells were cryo preserved at a concentration of 2×10^7 cells/mL, in 90% Charcoal/Dextran FBS and 10% DMSO, and frozen in liquid nitrogen at a low passage number.
For the pERK assay, 2×10^7 cells/mL cryopreserved human and mouse cells were thawed rapidly in a 37° C. water bath and added to a T-225 flask containing 50 mL growth medium. The flasks were placed in a tissue culture incubator overnight (37° C., 5% CO2). The next day, cells were harvested with trypsin (Gibco Cat. #25300-054), resuspended in serum-containing growth medium and counted using a Cellometer and volume adjusted to a concentration of 0.6×10^6cells/mL. Cells were plated into 384-well clear bottom tissue culture plates (BD Cat. #353962) at 50 μL/well, for a density of 30,000 cells/well using a MULTIDROP® and incubated for 16-18 hours (overnight) at 37° C. with 5% CO2. The next day, cells were serum starved in 30 μL of F-12 media without any serum or antibiotics for 2 hours at 37° C.
Test compounds were 3-fold, 11-point serially diluted in DMSO in a REMP assay plate (Matrix Cat. #4307) by Tecan and 5 μL was transferred into an ECHO source plate (LABCYTE® Cat. #LC-0200). Cells were then stimulated with 50 nL of compound dilutions using ECHO liquid handler for 7 minutes at 37° C. Compounds ranged from final assay concentrations of 33.33 μM to 0.56 nM.
The media was then dumped and cells lysed with 20 μL of 1× Lysis buffer from the AlphaScreen SureFire Phospho-ERK 1/2 Kit (Perkin Elmer Cat. #6760617M). The lysis buffer was diluted 5-fold with water before use. The plate was agitated on a shaker for 10 minutes after which 2 μL was transferred into a 384-well white proxiplate (Perkin Elmer Cat. #6008289). The SureFire assay reagent mix was prepared by mixing 60 parts Reaction Buffer, 10 parts Activation Buffer, 1 part Donor Beads, 1 part Acceptor Beads (Perkin Elmer Cat. #TGRES10K). 3.5 μL/well of this reagent mix was manually added to the proxiplate with a multichannel pipettor. Plates were spun down at 1000 rpm for 2 minutes, followed by light-protected incubation at room temperature for 2 hours. The plates were read on the Alpha-technology compatible Envision multilabel plate reader using AlphaScreen protocol according to manufacturer's specifications. The agonist effect of compounds was expressed as 100×(average sample−average blank)/(average total−average blank) where sample is the luminescence activity in the presence of test compound, blank is equal to the luminescence activity in the presence of DMSO control and the total is signal induced by 50 μM linolenic acid as reference compound. Activation data for the test compound over a range of concentrations was plotted as percentage activation of the test compound (100%=maximum response). After correcting for background, EC50 values were determined The EC50 is defined as the concentration of test compound which produces 50% of the maximal response and was quantified using the 4 parameter logistic equation to fit the data.
The human and mouse GPR120-mediated intracellular phosphorylated ERK assays were also established using CHO-K1 cells stably transfected with the short form of human or mouse GPR120 receptor. […]

EC50 | Compound
280 nM | O=C(O)COCCC12CCC(c3cccc(Oc4cccc(F)c4)c3)(CC1)OC2 [Example 45, 2-(2-(1-(3-(3-fluorophenoxy)phenyl)-2-oxabicyclo[2.2.2]octan-4-yl)ethoxy) acetic acid]
2570 nM | N#Cc1cccc(Oc2cccc(C34CCC(CCOCC(=O)O)(CC3)CO4)c2)c1 [Example 46, 2-(2-(1-(3-(3-Cyanophenoxy)phenyl)-2-oxabicyclo[2.2.2]octan-4-yl)ethoxy)acetic acid]
1360 nM | O=C(O)COCCC12CCC(c3cccc(Cc4ccccc4)c3)(CC1)OC2 [Example 50, 2-(2-(1-(3-Benzylphenyl)-2-oxabicyclo[2.2.2]octan-4-yl)ethoxy)acetic acid]
610 nM | OCC(O)CCC12CCC(c3cccc(Oc4ccccc4)c3)(CC1)OC2 (centres unmarked) [Example 56, 4-(1-(3-Phenoxyphenyl)-2-oxabicyclo[2.2.2]octan-4-yl)butane-1,2-diol]
1880 nM | OCCCCC12CCC(c3cccc(Oc4ccccc4)c3)(CC1)OC2 [Example 57, 4-(1-(3-Phenoxyphenyl)-2-oxabicyclo[2.2.2]octan-4-yl)butan-1-ol]
2530 nM | O=C(O)[C@@H]1C[C@H]1CCC12CCC(c3cccc(Oc4ccc(O)cc4)c3)(CC1)OC2 [Example 74, (1R,2R)-2-(2-(1-(3-(4-hydroxy-phenoxy)phenyl)-2-oxabicyclo[2.2.2]octan-4-yl)ethyl)cyclo-propanecarboxylic acid]
400 nM | O=C(O)COCCC12CCC(c3cccc(Oc4ccc(F)c(F)c4)c3)(CC1)OC2 [Example 75, 2-(2-(1-(3-(3,4-difluoro-phenoxy)phenyl)-2-oxabicyclo[2.2.2]octan-4-yl)ethoxy)acetic acid]
230 nM | Cc1ccc(Oc2cccc(C34CCC(CCOCC(=O)O)(CC3)CO4)c2)cc1F [Example 77, 2-(2-(1-(3-(3-fluoro-4-methylphenoxy)phenyl)-2-oxabicyclo[2.2.2]octan-4-yl)ethoxy)acetic acid]
490 nM | Cc1cc(Oc2cccc(C34CCC(CCOCC(=O)O)(CC3)CO4)c2)ccc1F [Example 78, 2-(2-(1-(3-(4-fluoro-3-methylphenoxy)phenyl)-2-oxabicyclo[2.2.2]octan-4-yl)ethoxy)acetic acid]

The next lines start with the molecule.

Compound | EC50
O=C(O)COCCC12CCC(c3cccc(OS(=O)(=O)C(F)(F)F)c3)(CC1)OC2 [Example 47, 2-(2-(1-(3-(Trifluoromethylsulfonyloxy)phenyl)-2-oxabicyclo[2.2.2]octan-4-yl)ethoxy)acetic acid] | 1030 nM
Cc1nc(-c2cccc(C34CCC(CCOCC(=O)O)(CC3)CO4)c2)no1 [Example 48, 2-(2-(1-(3-(5-Methyl-1,2,4-oxadiazol-3-yl)phenyl)-2-oxabicyclo[2.2.2]octan-4-yl)ethoxy)acetic acid] | 6760 nM
O=C(O)COCCC12CCC(c3cccc(C(F)(F)F)c3)(CC1)OC2 [Example 49, 2-(2-(1-(3-(Trifluoromethyl)phenyl)-2-oxabicyclo[2.2.2]octan-4-yl)ethoxy)acetic acid] | 3310 nM
O=C(O)COCCC12CCC(c3cccc(OCC4CCC4)c3)(CC1)OC2 [Example 51, 2-(2-(1-(3-(Cyclobutylmethoxy)phenyl)-2-oxabicyclo[2.2.2]octan-4-yl)ethoxy)acetic acid] | 1090 nM
O=C(O)COCCC12CCC(c3cccc(OCC4CCCCC4)c3)(CC1)OC2 [Example 52, 2-(2-(1-(3-(Cyclohexylmethoxy)phenyl)-2-oxabicyclo[2.2.2]octan-4-yl)ethoxy)acetic acid] | 4340 nM
O=C(O)COCCC12CCC(c3cc(F)cc(OCC(F)(F)F)c3)(CC1)OC2 [Example 54, 2-(2-(1-(3-Fluoro-5-(2,2,2-trifluoroethoxy)phenyl)-2-oxabicyclo[2.2.2]octan-4-yl)ethoxy)acetic acid] | 3470 nM
O=C(O)COCCC12CCC(c3cc(F)cc(Oc4cccc(F)c4)c3)(CC1)OC2 [Example 55, 2-(2-(1-(3-Fluoro-5-(3-fluorophenoxy)phenyl)-2-oxabicyclo[2.2.2]octan-4-yl)ethoxy) acetic acid] | 330 nM
O=C(O)C1CC1CCC12CCC(c3cccc(OC4CCCCO4)c3)(CC1)OC2 (centres unmarked) [Example 61, 2-(2-(1-(3-(Tetrahydro-2H-pyran-2-yloxy)phenyl)-2-oxabicyclo[2.2.2]octan-4-yl)ethyl) cyclopropanecarboxylic acid] | 5230 nM
COc1ccc(Oc2cccc(C34CCC(CC[C@@H]5C[C@H]5C(=O)O)(CC3)CO4)c2)cc1 [Example 71, (1R,2R)-2-(2-(1-(3-(4-methoxy-phenoxy)phenyl)-2-oxabicyclo[2.2.2]octan-4-yl)ethyl)cyclo-propane carboxylic acid] | 1170 nM
O=C(O)[C@@H]1C[C@H]1CCC12CCC(c3cccc(Oc4cc(F)cc(F)c4)c3)(CC1)OC2 [Example 72, (1R,2R)-2-(2-(1-(3-(3,5-difluorophenoxy)phenyl)-2-oxabicyclo[2.2.2]octan-4-yl)ethyl) cyclopropanecarboxylic acid] | 490 nM
O=C(O)[C@@H]1C[C@H]1CCC12CCC(c3cccc(Oc4ccc(F)c(F)c4)c3)(CC1)OC2 [Example 73, (1R,2R)-2-(2-(1-(3-(3,4-difluorophenoxy)phenyl)-2-oxabicyclo[2.2.2]octan-4-yl)ethyl) cyclopropanecarboxylic acid] | 540 nM
O=C(O)COCCC12CCC(c3cccc(Oc4cc(F)cc(F)c4)c3)(CC1)OC2 [Example 76, 2-(2-(1-(3-(3,5-difluorophenoxy)phenyl)-2-oxabicyclo[2.2.2]octan-4-yl)ethoxy)acetic acid] | 420 nM
O=C(O)COCCC12CCC(c3cc(F)cc(Oc4ccc(F)c(F)c4)c3)(CC1)OC2 [Example 79, 2-(2-(1-(3-(3,4-difluorophenoxy)-5-fluorophenyl)-2-oxabicyclo [2.2.2]octan-4-yl)ethoxy) acetic acid] | 550 nM
Cc1cc(Oc2cc(F)cc(C34CCC(CCOCC(=O)O)(CC3)CO4)c2)ccc1F [Example 81, 2-(2-(1-(3-fluoro-5-(4-fluoro-3-methylphenoxy)phenyl)-2-oxabicyclo [2.2.2]octan-4-yl)ethoxy) acetic acid] | 520 nM
COc1cccc(Oc2cc(F)cc(C34CCC(CCOCC(=O)O)(CC3)CO4)c2)c1 [Example 82, 2-(2-(1-(3-fluoro-5-(3-methoxyphenoxy)phenyl)-2-oxabicyclo[2.2.2]octan-4-yl)ethoxy)acetic acid] | 810 nM
Cc1ccc(Oc2cc(F)cc(C34CCC(CCOCC(=O)O)(CC3)CO4)c2)cc1 [Example 83, 2-(2-(1-(3-fluoro-5-(p-tolyloxy)phenyl)-2-oxabicyclo[2.2.2]octan-4-yl)ethoxy)acetic acid] | 320 nM
COc1cc(F)cc(Oc2cc(F)cc(C34CCC(CCOCC(=O)O)(CC3)CO4)c2)c1 [Example 84, 2-(2-(1-(3-fluoro-5-(3-fluoro-5-methoxyphenoxy)phenyl)-2-oxabicyclo [2.2.2]octan-4-yl)ethoxy) acetic acid] | 470 nM
